The test deals with T1, human p38alfa (SAPKa) enzyme (Homo sapiens, UniProt Q16539).
T1 construct: purchased University of Dundee
T1 sequence (Q16539 whole entry): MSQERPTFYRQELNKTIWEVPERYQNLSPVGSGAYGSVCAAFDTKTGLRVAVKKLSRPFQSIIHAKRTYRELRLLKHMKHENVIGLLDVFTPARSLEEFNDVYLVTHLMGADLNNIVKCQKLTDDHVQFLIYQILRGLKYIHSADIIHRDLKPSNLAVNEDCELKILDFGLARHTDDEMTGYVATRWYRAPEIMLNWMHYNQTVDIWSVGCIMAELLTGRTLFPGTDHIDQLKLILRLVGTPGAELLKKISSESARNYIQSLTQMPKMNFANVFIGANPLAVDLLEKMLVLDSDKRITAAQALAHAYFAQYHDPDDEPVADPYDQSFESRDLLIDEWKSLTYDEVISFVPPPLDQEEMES
Description: Inhibition assay: p38alfa enzymatic activity (FRET, biotinylated ATF2 substrate). The test is classed as biochemical. Particulars: 1 h pre-incubation; ATF2 0.62 μM and ATP 60 μM; 1 h at 25° C.; read-out: p38α IC50. On the procedure: Various concentrations of the test compound or vehicle controls were pre-incubated for one hour with 0.055 μg/ml of the human p38alfa (SAPKa) enzyme (obtained from University of Dundee). […] Addition of the detection reagents, streptavidin-XL665 and anti-phosphoresidue antibody coupled to Europium cryptate, caused the juxtaposition of the cryptate and the XL665 fluorophore, resulting in fluorescence energy transfer (FRET). The FRET intensity depends on the amount of bounded cryptate antibody, which is proportional to the extent of substrate phosphorylation. FRET intensity was measured using Victor 2V spectrofluorometer.
Data were analyzed by non-linear regression (Hill equation) to generate a dose-response curve.
Turning to `Cc1ccc2c(NC3CC3)noc2c1-c1ccc2c(c1)NC(=O)C21CCCC1` [Example 1, 6′-(3-(Cyclopropylamino)-6-methylbenzo[d]isoxazol-7-yl)spiro[cyclopentane-1,3′-indolin]-2′-one], the half-inhibitory concentration (IC50) (commonly the midpoint of a concentration-inhibition curve) amounted to 0.9 nM.

For `Cc1ccc2c(N)noc2c1-c1ccc2c(c1)NC(=O)C21CCC(C)(O)CC1` (stereo not drawn) [Example 12, 6′-(3-amino-6-methylbenzo[d]isoxazol-7-yl)-4-hydroxy-4-methylspiro[cyclohexane-1,3′-indolin]-2′-one], the half-maximal inhibitory concentration (IC50) is 0.9 nM. `Cc1ccc2c(NC3CC3)noc2c1-c1ccc2c(c1)NC(=O)C21CCOCC1` [Example 4, 6-(3-(Cyclopropylamino)-6-methylbenzo[d]isoxazol-7-yl)-2′,3′,5′,6′-tetrahydrospiro [indoline-3,4′-pyran]-2-one]: the concentration for half-maximal inhibition (IC50) worked out at 0.2 nM. The value for `O=C1Nc2cc(-c3cccc4c(NC5CC5)noc34)ccc2C12CCCC2` [Example 2, 6′-(3-(Cyclopropylamino)benzo[d]isoxazol-7-yl)spiro[cyclopentane-1,3′-indolin]-2′-one] was 39 nM; that for `Cc1ccc2c(NC3CC3)noc2c1-c1cnc2c(c1)NC(=O)C21CCOCC1` [Example 7, 6′-(3-(cyclopropylamino)-6-methylbenzo[d]isoxazol-7-yl)-2,3,5,6-tetrahydrospiro[pyran-4,3′-pyrrolo[3,2-b]pyridin]-2′(1′H)-one] was 6.3 nM; that for `Cc1ccc2c(N)noc2c1-c1ccc2c(c1)NC(=O)C21CCC(F)(F)CC1` [Example 14, 6′-(3-Amino-6-methyl-1,2-benzisoxazol-7-yl)-4,4-difluorospiro[cyclohexane-1,3′-indol]-2′(1′H)-one] was 1 nM. As for `O=C1Nc2cc(-c3cccc4c(NC5CC5)noc34)c(Cl)cc2C12CCCC2` [Example 3, 5′-Chloro-6′-(3-(cyclopropylamino)benzo[d]isoxazol-7-yl)spiro[cyclopentane-1,3′-indolin]-2′-one], the IC50 turned out to be 4 nM. Under `Cc1ccc2c(NC3CC3)noc2c1-c1cnc2c(c1)NC(=O)C21CCC(C)(O)CC1` (stereo not drawn) [Example 8, 6′-(3-(cyclopropylamino)-6-methylbenzo[d]isoxazol-7-yl)-4-hydroxy-4-methylspiro[cyclohexane-1,3′-pyrrolo[3,2-b]pyridin]-2′(1′H)-one] stands 0.65 nM; under `Cc1ccc2c(N)noc2c1-c1ccc2c(c1)NC(=O)C21CCC(OCCN2CCOCC2)CC1` (stereo not drawn) [Example 13, 6′-(3-amino-6-methylbenzo[d]isoxazol-7-yl)-4-(2-morpholinoethoxy)spiro[cyclohexane-1,3′-indolin]-2′-one], 3.3 nM; under `Cc1ccc2c(NC3CC3)noc2c1-c1ccc2c(c1)NC(=O)C2(C)C` [Example 6, 6-(3-(Cyclopropylamino)-6-methylbenzo[d]isoxazol-7-yl)-3,3-dimethylindolin-2-one], 0.4 nM. For the compound `Cc1ccc2c(NC3CC3)noc2c1-c1cnc2c(c1)NC(=O)C21CCC(C)(O)CC1` (stereo not drawn) [Example 9, 6′-(3-(cyclopropylamino)-6-methylbenzo[d]isoxazol-7-yl)-4-hydroxy-4-methylspiro[cyclohexane-1,3′-pyrrolo[3,2-b]pyridin]-2′(1′H)-one], the 50% inhibitory concentration (IC50) stood at 0.4 nM. Under `Cc1ccc2c(NC3CC3)noc2c1-c1ccc2c(c1)NC(=O)C21CCC(F)(F)CC1` [Example 5, 6′-(3-(Cyclopropylamino)-6-methylbenzo[d]isoxazol-7-yl)-4,4-difluorospiro [cyclohexane-1,3′-indolin]-2′-one] stands 0.06 nM; under `Cc1ccc2c(N)noc2c1-c1ccc2c(c1)NC(=O)C21CCOCC1` [Example 11, 6-(3-Amino-6-methylbenzo[d]isoxazol-7-yl)-2′,3′,5′,6′-tetrahydrospiro[indoline-3,4′-pyran]-2-one], 10 nM; under `Cc1ccc2c(N)noc2c1-c1ccc2c(c1)NC(=O)C2(C)C` [Example 15, 6-(3-Amino-6-methyl-1,2-benzisoxazol-7-yl)-3,3-dimethyl-1,3-dihydro-2H-indol-2-one], 38 nM. As to `Cc1ccn2c(NCC3CC3)nnc2c1-c1ccc2c(c1)NC(=O)C21CCCC1` [Example 20, 6′-(3-(cyclopropylmethylamino)-7-methyl-[1,2,4]triazolo[4,3-a]pyridin-8-yl)spiro[cyclopentane-1,3′-indolin]-2′-one], the 50% inhibitory concentration (IC50) came to 20 nM.
